# Measured values from patent US20030005484A1, “Microbiocidal and pesticidal aromatic aldehydes” (ProGuard, Inc., priority 1994, published 2003).
# “And” between values parts separate entries of the source, which are not always exact repeats. Identical values can stand only once.
# What was measured:
# phylloxera-biotype A = experiment: greenhouse Merlot vines infested with phylloxera, leaf spray, disease rating of roots; assay type: in vivo, Daktulosphaira vitifoliae
# Description: For greenhouse tests, one year old potted V. vinifera cultivar merlot plants were used that had been obtained from Foundation Plant Material Service, University of California, Davis. The plants were potted in 10 cm diameter pots and were infested with phylloxera 5 weeks prior to treatment. At the time of spraying with a treatment solution, plant pots were placed in a plastic bag so that chemical runoff from the leaf sprays would not drip into the soil. The plants were sprayed to runoff with a household 1 liter-capacity plastic spray bottle. Plants were allowed to air dry outside and then replaced in the greenhouse. At intervals thereafter, the roots were separated from the potting mix and total phylloxera population estimated.
# [1] = tested on: melon aphid (Aphis gossypii Glover); experiment: melon aphid plant foliar bioassay on chrysanthemum; assay type: in vivo; details: for Mean Number of Aphid Nymphs Per Leaf: sprayed to runoff, after 36 hours, pre-count 60
# Experimental: Treatment of melon aphid (Aphis gossypii Glover) was conducted as follows. Chrysantemums (C. morifolum) were used for melon aphid plant foliar bioassays. Plants were grown in […] pots in planting soil in greenhouse. Flowering plants were infested and pre-count population size for each plant were taken and number of mean of aphids nymphs per leaf calculated. The plants were sprayed to runoff (about 5 ml) with an aqueous formulation containing 1,000 ppm, 3,000 ppm, and 10,000 ppm concentration of cinnamic aldehyde, and a negative control containing only H2O. After 36 hours, the number of insects on the leaves sprayed with a given test formulation was determined and compared with that of insects on leaves sprayed with negative control only. Mean number of aphid nymphs per leaf were determined to be less than 10 for each cinnamic aldehyde concentration as compared to a pre-count mean of about 60.
# [2] = tested on: western flower thrips, Frankliniella occidentalis; experiment: western flower thrips dose-mortality on miniature rose foliage; assay type: in vivo
# Experimental: Dose-mortality response of CNMA formula against western flower thrips, Frankliniella occidentalis, was evaluated. Three different dose levels of the CNMA formulation were tested in comparison with a water only control. Tests were conducted using 500 ml ventilated paper cartons as experimental areas containing miniature rose foliage with approximately 30 adult F. occidentalis in each. An F. occidentalis colony (U.C. Davis, Department of Entomology) maintained on chrysanthemums and miniature rose was the source of thrips for the study. Three active ingredient dose levels (0.1, 0.3, and 1.0%) were sprayed onto the plants using a laboratory spray tower calibrated to spray the field equivalent of 113 L per acre at the desired dosage. Four replicates (4 observations per treatment) were compared for each dosage. For each test, treatment cartons received the treatment and were maintained at room temperature. […] Table 20 presents the mean mortality treatment data.
# [3] = tested on: melon aphid (Aphis gossypli Glover); experiment: melon aphid bioassay with Storax formulations; assay type: in vivo, Aphis gossypii; details: previous bioassays; plants sprayed to run-off at 1,000 ppm
# Experimental: The purpose of this study was to determine the effect of STORAX incorporated into various formulations to evaluate its potential use as a synergist. Initial bioassays were conducted using STORAX at 0.6%, 1.0%, 2.0% with Tween 80 (1%) only. A second bioassay was conducted to evaluate the efficacy of STORAX (at 0.6%) alone and STORAX (at 0.6%) plus cinnamic aldehyde (at 0.1%) or alpha hexyl cinnamaldehyde (at 0.1%). […] STORAX combined with cinnamic aldehyde or α-hexyl cinnamic aldehyde reduced the time course of lethality and increases mortality. Moreover, the cinnamic aldehyde-STORAX formulation approaches the lethal time (LT) required at 2 h for kill of certain virus transmitting pests (e.g., brown citrus aphid).
# [4] = tested on: Silverleaf Whitefly (Bemisia argentifolii); experiment: silverleaf whitefly 1st and 2nd instars on poinsettia; assay type: in vivo; details: 0.5% cinnamic aldehyde and […] Tween 20, 48 hours
# Experimental: Clip cages were set on poinsettia plants leaves to capture white fly adults which then were allowed to oviposit for 48 hours. Four plants per treatment or control were put into an environmental chamber and the eggs allowed to incubate for 5 days until a majority of the eggs had hatched to first and second instar. Three treatments at 0.5% cinnamic aldehyde and 0.25% Tween 20 (T1, T2, T3) and three control treatments of 0.25% Tween 20 only (C1, C2, C3) were sprayed to run off on each plant. Mortality was recorded after 48 hours (see Table 23).
# pacific mites = pacific mites on Chardonnay grapes, 0.4% spray; assay type: in vivo
# Experimental: The effect of 0.4% cinnamic aldehyde on powdery mildew and pacific mites on grapes was examined. Cinnamic aldehyde was diluted to 0.4% in water and sprayed onto a 1.8 acre test plot of Chardonnay grapevines with a tractor drawn, PTO powered sprayer, spraying at approximately 100 psi at a rate of 150 gal./acre. A 3 acre untreated plot served as a negative control. Additional controls included treatment of a 3.8 acre plot with stylet oil and a plot treated with a mix of Rubigan, Omite, and stylet oil, which cost appriximately $60.00/acre. Spray cards were placed randomly through the test block. Ten fruit clusters, which were generally completely covered with powdery mildew, in each of the four fields were flagged. […] Therefore, cinnamic aldehyde was effective at controlling both powdery mildew and pacific mites on grapes.
# [5] = CNMA 0.4% in water, 150 gal./acre, controls stylet oil, chemical mix
structure (smiles),measurement,setting,value
O=C/C=C/c1ccccc1 [cinnamic aldehyde],Average disease rating (0-4),"phylloxera-biotype A; CNMA 10,000 ppm in 6% NaHCO3 and 2% Tween-80, leaves to run-off, week 1 (7 day evaluation)",0^2(3)^3 and 0
same,Average disease rating (0-4),"phylloxera-biotype A; Experiment 2, 2500 ppm CNMA leaf treatment, 1 day post treatment",4 (3)
same,Average disease rating (0-4),"phylloxera-biotype A; Experiment 2, 2500 ppm CNMA leaf treatment, 2 days post treatment",0.3(3)
same,Average disease rating (0-4),"phylloxera-biotype A; Experiment 2, 2500 ppm CNMA leaf treatment, 7 days post treatment",0.3(3)
same,insects on roots after leaf spray,"phylloxera-biotype A; one-year-old greenhouse Merlot vines sprayed to run-off, after two weeks",disappeared
same,Mean Number of Aphid Nymphs Per Leaf,"[1]; CNMA 1,000 ppm in H2O",6 ± 3
same,Mean Number of Aphid Nymphs Per Leaf,"[1]; CNMA 3,000 ppm in H2O",4 ± 3
same,Mean Number of Aphid Nymphs Per Leaf,"[1]; CNMA 10,000 ppm in H2O",1 ± 1
same,Mean number of aphid nymphs per leaf,"[1]; each concentration (1,000, 3,000, 10,000 ppm), pre-count mean of about 60",less than 10
same,Mean Thrip Mortality,"[2]; 0.1% CNMA (C), sampling time 1615",0.13
same,Mean Thrip Mortality,"[2]; 0.1% CNMA (C), sampling time 1645",0.17
same,Mean Thrip Mortality,"[2]; 0.1% CNMA (C), sampling time 1715",0.17
same,Mean Thrip Mortality,"[2]; 0.1% CNMA (C), sampling time 1845",0.19
same,Mean Thrip Mortality,"[2]; 0.1% CNMA (C), sampling time 2215",0.25
same,Mean Thrip Mortality,"[2]; 0.3% CNMA (B), sampling time 1615",0.26
same,Mean Thrip Mortality,"[2]; 0.3% CNMA (B), sampling time 1645",0.28
same,Mean Thrip Mortality,"[2]; 0.3% CNMA (B), sampling time 1715",0.28
same,Mean Thrip Mortality,"[2]; 0.3% CNMA (B), sampling time 1845",0.37
same,Mean Thrip Mortality,"[2]; 0.3% CNMA (B), sampling time 2215",0.40
same,Mean Thrip Mortality,"[2]; 1.0% CNMA (A), sampling time 1615",0.79
same,Mean Thrip Mortality,"[2]; 1.0% CNMA (A), sampling time 1645",0.82
same,Mean Thrip Mortality,"[2]; 1.0% CNMA (A), sampling time 1715",0.78
same,Mean Thrip Mortality,"[2]; 1.0% CNMA (A), sampling time 1845",0.84
same,Mean Thrip Mortality,"[2]; 1.0% CNMA (A), sampling time 2215",0.84
same,time at which an LD50 was observed,[3],2 h
same,time at which an LD75 was observed,[3],24 h
same,"Alive, total of T1-T3",[4],35
same,"Dead, total of T1-T3",[4],363
same,Mortality (%),"[4]; T1-T3 combined, Tween 20 control 9%",91%
same,% INHIBITION (MITES),pacific mites; [5],96%
same,MITES POST-SPRAY,pacific mites; [5],1.6
same,MITES PRE-SPRAY,"pacific mites; baseline, CNMA 0.4% plot, stylet oil plot, chemical mix plot",36
